Common to all, as to format: in vivo, human
Assay [1] deals with panelists. Kind of assay: Quantitative sensory evaluation test of salty taste enhancement. On the procedure: After the test compound was dissolved, samples more acidic than a control containing no added test compound were adjusted, before further use, with NaOH to have a pH in a range of ±0.2 from the pH of the control to which no test compound was added.
The sensory evaluation scores were as follows, the control to which no test compound was added, i.e. a 0.5 g/dL sodium chloride solution: 0 points; a 0.75 g/dL sodium chloride solution: 5 points. The sensory evaluation was conducted on a scale ranging from −5 to 0 to 5, with n=5. The “initial taste” refers to the taste perceived by each panelist from the start of eating the sample to 2 seconds thereafter, while the term “middle/after taste” refers to that perceived by each panelist from 2 seconds on and after eating the same, i.e. perceived during the period including both the middle taste and the after taste. For the scoring, a linear scale method was used. In this method, the score was marked as a position on a straight line showing positions for scores ranging from −5˜0˜5. The panelists were persons who were engaged in the development of seasonings for foods for one year or longer in total, and who were capable of determining that the difference in the potency between γ-Glu-Cys-Gly and γ-Glu-Val-Gly each added to a umami taste and salty taste solution was around 10 times, while confirming the ability of these persons at regular intervals.

For assay [2], the system named is panelists. Briefly: Quantitative sensory evaluation test of kokumi-imparting activity. The conditions noted are these: for Strength of Kokumi Impartment, Initial Taste / Strength of Kokumi Impartment, Middle/After Taste: scale -5~0~5, n=4; for Kokumi-imparting strength compared with γ-Glu-Val (in words): in vivo. The protocol:
This quantitative sensory evaluation test was carried out as follows: The strength of the kokumi-imparting activity was measured for the cases where the test compound was mixed at concentrations of 0.001 to 0.5 g/dL with distilled water containing sodium glutamate (0.05 g/dL), inosine monophosphate (0.05 g/dL), and sodium chloride (0.5 g/dL). After the test compound was dissolved, samples more acidic than a control with no added test compound were adjusted, before further use, with NaOH to have a pH in a range of ±0.2 from the pH of the control with no added test compound. The sensory evaluation scores were as follows: control: 0 points; strong: 3 points; very strong: 5 points. The sensory evaluation was carried out using n (the number of panelists)=4. Moreover, to clarify the scale, the initial taste and the middle/after taste of γ-[…] at 0.001 g/dL were both set as 3.0 points. The term “middle/after taste” refers to the taste perceived during the period which includes the middle taste and the after taste. For the scoring, a linear scale method was employed. In this method, the score was marked as a position on a straight line showing positions for scores ranging from -5 0 5.

Assay [3] relates to panelists. Kind of assay: Strength of kokumi-imparting activity by Point of Subjective Equality (PSE), limit-determining technique. On the procedure:
The intensity of the kokumi-imparting activity of γ-Glu-Abu was determined by Point of Subjective Equality (PSE) according to the limit-determining technique (“Statistical Sensory Examination techniques”, written by SATO Shin, published by Japan Federation of Science and Technology). The sensory evaluation was carried out as follows: Distilled water containing sodium glutamate (0.05 g/dL), inosine monophosphate (0.05 g/dL) and sodium chloride (0.5 g/dL) was used as the solution for the sensory evaluation. […] To determine the concentration of γ-Glu-Val at which the strength of taste is the same as that of a solution obtained by causing the solution for the sensory evaluation to contain 0.005 g/dL of γ-[…] solutions were prepared with a concentration that varied on a 50% logarithmic scale by using a solution obtained by causing the solution for the sensory evaluation, to contain 0.01 g/dL of γ-Glu-Val as a standard. The concentrations of γ-Glu-Val was set to 7 values ranging from 0.0030 to 0.0337 g/dL. After the test substance was dissolved, samples more acidic than the control with no added test substance were adjusted, before further use, with NaOH to have a pH in a range of ±0.2 as compared to the pH of the control with no added test substance. The solutions were presented to eighteen panelists in ascending order of the γ-Glu-Val concentration. The evaluation was carried out until each panelist perceived that the strength was higher than that of the 0.005 g/dL γ-Glu-Abu solution. After a certain interval, the solutions were next presented to the eighteen panelists in descending order of the γ-Glu-Val concentration. The evaluation was carried out until each panelist perceived that the strength was lower than that of the 0.005 g/dL γ-Glu-Abu solution. In this sensory evaluation, the panelists were experienced in the development of food products. When the lower and upper threshold values were the same, there was no γ-Glu-Val concentration at which the difference between the perception that the strength was lower, and the perception that the strength was higher, was uncertain. […] Each confidence threshold (average) is an average of the lower thresholds and the upper thresholds. The point of subjective equality (PSE) of γ-Glu-Val to 50 ppm (0.0050 g/dL) of γ-Glu-Abu is expressed as follows: (the sum of the confidence threshold of the lower thresholds and that of the upper threshold value)/2.

The mark [4] stands for this setting: 0.002 g/dL in 0.5 g/dL NaCl, 0.5 g/dL NaCl = 0, 0.75 g/dL NaCl = 5, n=5.
The mark [5] stands for this setting: 0.01 g/dL in water with MSG 0.05, IMP 0.05, NaCl 0.5 g/dL.
Where [6] appears, read: γ-Glu-Val vs 50 ppm γ-Glu-Abu, individual panelists (Nos. 1-18), ascending order of presentation.
Where [7] appears, read: γ-Glu-Val vs 50 ppm γ-Glu-Abu, individual panelists (Nos. 19-36), descending order of presentation.
Setting [8] is: 0.2 g/dL in water with MSG 0.05, IMP 0.05, NaCl 0.5 g/dL.

Values joined by “and” are separate entries in the source; they are usually repeats but may differ in a detail not shown here. Equal values may be shown once. “Also recorded” adds a separate entry of the source. Starred links: 1 amine or outer side, 2 acyl side, 3 side chain; linkers in the order of their positions; H or OH if unused. Non-standard residues stand in square brackets, D forms with d. No end group written: not given here. γGlu = O=C(O)[C@H](CCC(=O)[*:2])N[*:1]

Take [γGlu]-Val-Gly: in assay [1] (setting [4]), the “Strength of Salty Taste Impartment, Initial Taste” value came to 0.8 points and the “Strength of Salty Taste Impartment, Middle/After Taste” value worked out at 1.8 points. Besides, the “Salty taste enhancement ability (in words)” value in assay [1] (comparison of γ-Glu-Val-Gly and γ-Glu-Abu) is listed as “higher taste-imparting strength than γ-Glu-Abu; also recorded: remarkably disturbs the balance of the salty taste”.
Turning to `CC(C)[C@H](NC(=O)CC[C@H](N)C(=O)O)C(=O)O` [γ-Glu-Val, γ-L-Glu-L-Val], the “Sensory Evaluation Profile (kokumi)” value in assay [2] (0.01 g/dL) is “The after taste was extremely weak”. Further, the “Strength of Kokumi Impartment, Initial Taste” value in assay [2] (setting [5]) is reported as 3.1 points. Besides, in assay [2] (setting [5]), the “Strength of Kokumi Impartment, Middle/After Taste” value was 2.4 points. In assay [3] ((lower + upper confidence threshold)/2), the “PSE (point of subjective equality) of γ-Glu-Val to 50 ppm γ-Glu-Abu” value was determined as 121.9 ppm. For the same compound, the “γ-Glu-Val concentration (PSE) with the same strength as 0.0050 g/dL γ-Glu-Abu, estimated from number of panelists (Table 4)” value in assay [3] (estimated from Table 4) is listed as 0.0100 g/dL. Also, in assay [3] (vs 0.0050 g/dL γ-Glu-Abu), the “PSE calculated from upper and lower threshold concentrations of γ-Glu-Val” value was 0.0122 g/dL. Moreover, the “No. of Panelists whose evaluation was such that the difference between γ-Glu-Val and γ-Glu-Abu (0.0050 g/dL) was uncertain” value is on record as 0 No. of panelists in assay [3] (γ-Glu-Val 0.0030 g/dL); 0 No. of panelists in assay [3] (γ-Glu-Val 0.0044 g/dL); 13 No. of panelists in assay [3] (γ-Glu-Val 0.0067 g/dL); 13 No. of panelists in assay [3] (γ-Glu-Val 0.0100 g/dL); 6 No. of panelists in assay [3] (γ-Glu-Val 0.0150 g/dL); 7 No. of panelists in assay [3] (γ-Glu-Val 0.0225 g/dL). Besides, the “No. of Panelists whose evaluation was such that the difference between γ-Glu-Val and γ-Glu-Abu (0.0050 g/dL) was uncertain” value in assay [3] (γ-Glu-Val 0.0337 g/dL) was 0 No. of panelists. Also, the “No. of Panelists whose evaluation was such that γ-Glu-Val was weaker than γ-Glu-Abu (0.0050 g/dL)” value in assay [3] (γ-Glu-Val 0.0030 g/dL) is listed as 36 No. of panelists; in assay [3] (γ-Glu-Val 0.0044 g/dL) it was 35 No. of panelists; in assay [3] (γ-Glu-Val 0.0067 g/dL), 20 No. of panelists; in assay [3] (γ-Glu-Val 0.0100 g/dL) it was 12 No. of panelists; in assay [3] (γ-Glu-Val 0.0150 g/dL), 5 No. of panelists; in assay [3] (γ-Glu-Val 0.0225 g/dL), 1 No. of panelists. Also, the “No. of Panelists whose evaluation was such that γ-Glu-Val was weaker than γ-Glu-Abu (0.0050 g/dL)” value in assay [3] (γ-Glu-Val 0.0337 g/dL) is recorded as 0 No. of panelists. In addition, the “No. of Panelists whose evaluation was such that γ-Glu-Val was stronger than γ-Glu-Abu (0.0050 g/dL)” value in assay [3] (γ-Glu-Val 0.0030 g/dL, 18 panelists, ascending and descending) is 0 No. of panelists; in assay [3] (γ-Glu-Val 0.0044 g/dL) it was 1 No. of panelists; in assay [3] (γ-Glu-Val 0.0067 g/dL) it was 3 No. of panelists; in assay [3] (γ-Glu-Val 0.0100 g/dL), 11 No. of panelists; in assay [3] (γ-Glu-Val 0.0150 g/dL), 25 No. of panelists; in assay [3] (γ-Glu-Val 0.0225 g/dL) it was 28 No. of panelists. In addition, the “No. of Panelists whose evaluation was such that γ-Glu-Val was stronger than γ-Glu-Abu (0.0050 g/dL)” value in assay [3] (γ-Glu-Val 0.0337 g/dL) was 36 No. of panelists. Also, the “Confidence Region (average), Lower Threshold” value in assay [3] (γ-Glu-Val vs 50 ppm γ-Glu-Abu, average of the 36 lower thresholds) is 94.5 ppm. In addition, the “Confidence Region (average), Upper Threshold” value in assay [3] (γ-Glu-Val vs 50 ppm γ-Glu-Abu, average of the 36 upper thresholds) worked out at 149.3 ppm. In addition, the “Lower Threshold at which each panelist determined that the concentrations were the same” value in assay [3] (setting [6]) was 55.5 ppm and 125.0 ppm and 37.0 ppm and 83.5 ppm and 187.5 ppm; in assay [3] (setting [7]), 125.0 ppm (3×) and 83.5 ppm (5×) and 187.5 ppm (3×) and 55.5 ppm (5×) and 56.0 ppm and 281.0 ppm. The “Upper Threshold at which each panelist determined that the concentrations were the same” value in assay [3] (setting [6]) was 55.5 ppm and 125.0 ppm and 187.5 ppm and 37.0 ppm and 281.0 ppm and 83.5 ppm; in assay [3] (setting [7]) it was 125.0 ppm (7×) and 281.0 ppm (5×) and 187.5 ppm (2×) and 83.5 ppm (4×).
In the case of `C[C@H](NC(=O)CC[C@H](N)C(=O)O)C(=O)O` [γ-Glu-Ala, γ-L-Glu-L-Ala], in assay [2] (setting [8]), the “Strength of Kokumi Impartment, Initial Taste” value turned out to be 4.5 points and the “Strength of Kokumi Impartment, Middle/After Taste” value is given as 4.3 points. Besides, in assay [2], the “Kokumi-imparting strength compared with γ-Glu-Val (in words)” value is on record as “lower strength than γ-Glu-Val”.
In the same order, the values of `N[C@@H](CCC(=O)N[C@@H](CO)C(=O)O)C(=O)O` [γ-Glu-Ser, γ-L-Glu-L-Ser] are 3.6 points, 3.0 points and “lower strength than γ-Glu-Val”.
Turning to `N[C@@H](CCC(=O)N[C@@H](CS)C(=O)O)C(=O)O` [γ-Glu-Cys, γ-L-Glu-L-Cys], in assay [2] (setting [5]), the “Strength of Kokumi Impartment, Initial Taste” value is on record as 3.1 points and the “Strength of Kokumi Impartment, Middle/After Taste” value came to 3.1 points. Further, the “Kokumi-imparting strength compared with γ-Glu-Val (in words)” value in assay [2] is “strong effect approximately the same as that of γ-Glu-Val”.

The values above are taken from patent publication US9844226B2 (AJINOMOTO CO., INC., priority 2009, dated 2017).
